From ChEMBL document CHEMBL1201862, “PubChem BioAssay data set” (2004)
Structures can show the parent of a compound that is named as a salt.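 Protocol summary: plate cells (96-well), add compound at 5 concentrations, incubate 48 h, interpolate endpoints linearly. GI50 marks 50% less growth.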 The source made the active and inactive calls. Cut-off read from the data, not from the text of the source: active = GI50 up to about 1.1 µM and inactive = higher.

Tests used:
Assay in all cases: DTP human tumour cell line panel, 48 h
OVCAR-4 = tested on: OVCAR-4
Malme-3M = tested on: Malme-3M
UACC-257 = tested on: UACC-257
EKVX = tested on: EKVX
MDA-MB-231 = tested on: MDA-MB-231
HCT-116 = tested on: HCT-116
RXF 393 = tested on: RXF 393
HOP-92 = tested on: HOP-92
NCI-H226 = tested on: NCI-H226
MOLT-4 = tested on: MOLT-4
DU-145 = tested on: DU-145
RPMI-8226 = tested on: RPMI-8226
A549 = tested on: A549
SF-295 = tested on: SF-295
UO-31 = tested on: UO-31
OVCAR-5 = tested on: OVCAR-5
MDA-MB-435 = tested on: MDA-MB-435
SK-MEL-28 = tested on: SK-MEL-28
HCC 2998 = tested on: HCC 2998
NCI-H522 = tested on: NCI-H522

## N#C/C(=C/NC(=S)NCc1ccccc1)C(N)=O
OVCAR-4
  GI50: > 100 µM (inactive)
Malme-3M
  GI50: > 100 µM (inactive)
UACC-257
  GI50: > 100 µM (inactive)
EKVX
  GI50: > 100 µM (inactive)
MDA-MB-231
  GI50: > 100 µM (inactive)
HCT-116
  GI50: > 100 µM (inactive)
RXF 393
  GI50: > 100 µM (inactive)
HOP-92
  GI50: > 100 µM (inactive)
NCI-H226
  GI50: > 100 µM (inactive)
MOLT-4
  GI50: > 100 µM (inactive)
DU-145
  GI50: > 100 µM (inactive)
RPMI-8226
  GI50: > 100 µM (inactive)
A549
  GI50: > 100 µM (inactive)
SF-295
  GI50: > 100 µM (inactive)
UO-31
  GI50: 50.1 µM (inactive)
OVCAR-5
  GI50: > 100 µM (inactive)
MDA-MB-435
  GI50: > 100 µM (inactive)
SK-MEL-28
  GI50: > 100 µM (inactive)
HCC 2998
  GI50: > 100 µM (inactive)
NCI-H522
  GI50: > 100 µM (inactive)

## CS(=O)(=O)OCCN(CCOS(C)(=O)=O)c1ccc(/C=N/c2ccc(-c3csc(COc4ccccc4)n3)cc2)cc1
OVCAR-4
  GI50: 14.8 µM (inactive)
Malme-3M
  GI50: 12.8 µM (inactive)
UACC-257
  GI50: 10.2 µM (inactive)
EKVX
  GI50: 5.5 µM (inactive)
MDA-MB-231
  GI50: 17 µM (inactive)
HCT-116
  GI50: 12.6 µM (inactive)
RXF 393
  GI50: 0.461 µM (active)
HOP-92
  GI50: 15.6 µM (inactive)
NCI-H226
  GI50: 2.66 µM (inactive)
MOLT-4
  GI50: 0.271 µM (active)
DU-145
  GI50: 1.64 µM (inactive)
RPMI-8226
  GI50: 4.47 µM (inactive)
A549
  GI50: 3.21 µM (inactive)
SF-295
  GI50: 0.807 µM (active)
UO-31
  GI50: 0.65 µM (active)
OVCAR-5
  GI50: 3.73 µM (inactive)
MDA-MB-435
  GI50: 12.4 µM (inactive)
SK-MEL-28
  GI50: 12.7 µM (inactive)
HCC 2998
  GI50: 2.26 µM (inactive)
NCI-H522
  GI50: 0.295 µM (active)

## O=C1c2c(O)cccc2-c2nn(CCNCCO)c3ccc(NCCNCCO)c1c23 [LOSOXANTRONE HYDROCHLORIDE]
OVCAR-4
  GI50: 0.605 µM (active)
Malme-3M
  GI50: 0.123 µM (active)
UACC-257
  GI50: 1.6 µM (inactive)
EKVX
  GI50: 0.867 µM (active)
MDA-MB-231
  GI50: 0.185 µM (active)
HCT-116
  GI50: 0.043 µM (active)
RXF 393
  GI50: 0.188 µM (active)
HOP-92
  GI50: 0.0285 µM (active)
NCI-H226
  GI50: < 0.0171 µM (active)
MOLT-4
  GI50: < 0.01 µM (active)
DU-145
  GI50: < 0.01 µM (active)
RPMI-8226
  GI50: 0.432 µM (active)
A549
  GI50: < 0.01 µM (active)
SF-295
  GI50: 0.0236 µM (active)
UO-31
  GI50: 1.52 µM (inactive)
OVCAR-5
  GI50: 0.29 µM (active)
MDA-MB-435
  GI50: 0.53 µM (active)
SK-MEL-28
  GI50: 0.447 µM (active)
HCC 2998
  GI50: 0.137 µM (active)
NCI-H522
  GI50: 0.0228 µM (active)
